In one data set the target is P-glycoprotein (Homo sapiens, UniProt P08183). The settings on record: cited from earlier work.
The conditions of data set [1]: pediatric patient studies; cited from earlier work.
Another data set addresses T1, Drosophila Abl (Drosophila melanogaster, UniProt P00522).
T1 construct: the full-length cDNA of Drosophila Abl was obtained by ligating two fragments; Myc; expressed in transfected cells; host or cells: Drosophila Schneider 2 (S2) cells
In words: Abl activity in Schneider 2 cells expressing Drosophila Abl, western blot with anti-phospho-Y412-Abl antibody. In kind it is cell-based. The settings on record: nilotinib 5 μM, 6 hours, S2 cells expressing Drosophila Abl. The procedure: Abl activity was assessed by western blotting analysis with an anti-phospho-Y412-Abl antibody.
Drosophila Schneider 2 cells were maintained in Drosophila Schneider's medium (Life Technologies) supplemented with 10% fetal bovine serum (Sigma-Aldrich, St. Louis, Mo.) in a humidified atmosphere at 26° C. Cells grown on tissue culture plates were transfected with Lipofectamine 2000 (Life Technologies) according to manufacturer's recommendation. Cells were harvested two days after transfection, lysed in SDS sample buffer, and subjected to western blot analysis. In some experiments, cells were transfected with indicated DNA constructs together with tubulin-Gal4 (Lee and Luo, 2001) by using Lipofectamine 2000 (Invitrogen) according to manufacturer's protocol.
Western blot analysis was performed as follows.
(§1) Sample preparation, imaging, and quantification were then completed as described above.
During the development of embodiments of the technology provided herein, experiments were performed to assess the effects of Abl kinase inhibitors on Dscam-induced axonal overgrowth. […] Abl activity was assessed by western blotting analysis with an anti-phospho-Y412-Abl antibody.
(In general: A western blot detects proteins with antibodies after separation by electrophoresis.)

The subject of data set [2] is C4da neurons overexpressing Dscam. In words: Axon terminal overgrowth induced by Dscam overexpression in single C4da neurons (MARCM), larvae fed drug. In kind it is in vivo, Drosophila. The settings on record: larvae reared in food containing 380 μM nilotinib (figure legend: 0.4 mM), 4 days.
From the text: The genetic technique MARCM was used to express the Dscam transgene in single C4da neurons and to label the morphology of the axon terminals.
The MARCM technique was used to generate and label C4da neurons homozygous for abl^1 or abl^4 mutations and C4da neurons overexpressing Dscam[TM2]:GFP.
Antibodies used include chicken anti-GFP (Ayes) and rabbit anti-RFP (Rockland). Samples were dehydrated and mounted with DPX mounting media (Electron Microscopy Sciences). Confocal imaging was completed with a Leica SP5 confocal system equipped with a resonant scanner and 63× oil-immersion lens (NA=1.40).
as §1
In particular, the genetic mosaic analysis MARCM was used to express the Dscam transgene in single C4da neurons and to label the morphology of the axon terminals. […] Expression of Dscam transgene was achieved by the C4da-specific driver ppk-Gal4 and UAS-Dscam::GFP transgenes. […] Dscam expression levels (GFP intensity) were measured from the C4da neuron cell body.

The subject of data set [3] is dFMRP mutant C4da neurons. In words: Axon terminal overgrowth in dFMRP mutants (Fragile X Syndrome model), larvae fed drug. In kind it is in vivo, Drosophila. To be noted: larvae raised with nilotinib 4 days; vehicle-fed mutants 130%.
From the text: The MARCM technique was used to generate and visualize single axon terminals of mutant C4da neurons. […] FIG. 10c summarizes the data from FIG. 6, FIG. 10A and FIG. 10B relating to quantification of the axon terminal length of the indicated genotype and drug treatment. […] Scale bar is 10 μm. Two-way Student's t-test was used for statistical analysis. *: p<0.05; **: p<0.01; ***: p<0.001; ****; p<0.0001.
The MARCM technique was used to generate and label C4da neurons homozygous for abl^1 or abl^4 mutations and C4da neurons overexpressing Dscam[TM2]:GFP. MARCM clones were induced as previously described in Ye et al. (2011) Journal of Neuroscience 31: 3309-3319. Confocal images were collected and analyzed as described in Kim et al. (2013) Neuron 78: 827-838. The MARCM technique was used to visualize single neurons homozygous for abl^1, abl^4, or dFMRP^Δ50 and overexpressing Dscam[3.36.25.2]:GFP as previously described (Kim, et al., 2013).
as §1
Fragile X Syndrome (FXS) is caused by an absence of Fragile X mental retardation protein (FMRP) (Kremer, et al. (1991) Science 252: 1711-14), and is modeled in Drosophila using loss-of-function mutants for the Drosophila homolog of […], dFMRP (Zhang, et al. (2001) Cell 107:591-603; Dockendorff, et al. (2002) Neuron 34: 973-84).

The nature of the next data set: Human pharmacokinetics. In kind it is in vivo. To be noted: estimated.
The conditions of data set [4]: human, oral capsule; cited from earlier work.
A further data set has as its target T2, OCT1 (Homo sapiens, UniProt O15245).
T2 sequence (O15245 1-554): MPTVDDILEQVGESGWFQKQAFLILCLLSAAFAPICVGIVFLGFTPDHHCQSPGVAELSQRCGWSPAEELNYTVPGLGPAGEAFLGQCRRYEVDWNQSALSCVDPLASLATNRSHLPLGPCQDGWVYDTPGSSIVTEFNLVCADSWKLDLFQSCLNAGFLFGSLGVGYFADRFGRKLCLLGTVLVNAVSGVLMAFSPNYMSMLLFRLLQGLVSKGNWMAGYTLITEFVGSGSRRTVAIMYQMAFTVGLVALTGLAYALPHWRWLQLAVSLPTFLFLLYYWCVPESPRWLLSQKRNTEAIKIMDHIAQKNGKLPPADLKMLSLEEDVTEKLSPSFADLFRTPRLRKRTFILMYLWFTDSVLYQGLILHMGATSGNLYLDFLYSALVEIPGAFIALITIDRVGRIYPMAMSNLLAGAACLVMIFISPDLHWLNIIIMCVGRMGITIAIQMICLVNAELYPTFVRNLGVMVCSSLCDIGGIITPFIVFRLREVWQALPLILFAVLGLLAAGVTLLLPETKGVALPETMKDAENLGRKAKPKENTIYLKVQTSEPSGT
The settings on record: entry into cell cytoplasm; cited from earlier work.

“Also recorded” adds a separate entry of the source.

P-glycoprotein, sequence (P08183 whole entry): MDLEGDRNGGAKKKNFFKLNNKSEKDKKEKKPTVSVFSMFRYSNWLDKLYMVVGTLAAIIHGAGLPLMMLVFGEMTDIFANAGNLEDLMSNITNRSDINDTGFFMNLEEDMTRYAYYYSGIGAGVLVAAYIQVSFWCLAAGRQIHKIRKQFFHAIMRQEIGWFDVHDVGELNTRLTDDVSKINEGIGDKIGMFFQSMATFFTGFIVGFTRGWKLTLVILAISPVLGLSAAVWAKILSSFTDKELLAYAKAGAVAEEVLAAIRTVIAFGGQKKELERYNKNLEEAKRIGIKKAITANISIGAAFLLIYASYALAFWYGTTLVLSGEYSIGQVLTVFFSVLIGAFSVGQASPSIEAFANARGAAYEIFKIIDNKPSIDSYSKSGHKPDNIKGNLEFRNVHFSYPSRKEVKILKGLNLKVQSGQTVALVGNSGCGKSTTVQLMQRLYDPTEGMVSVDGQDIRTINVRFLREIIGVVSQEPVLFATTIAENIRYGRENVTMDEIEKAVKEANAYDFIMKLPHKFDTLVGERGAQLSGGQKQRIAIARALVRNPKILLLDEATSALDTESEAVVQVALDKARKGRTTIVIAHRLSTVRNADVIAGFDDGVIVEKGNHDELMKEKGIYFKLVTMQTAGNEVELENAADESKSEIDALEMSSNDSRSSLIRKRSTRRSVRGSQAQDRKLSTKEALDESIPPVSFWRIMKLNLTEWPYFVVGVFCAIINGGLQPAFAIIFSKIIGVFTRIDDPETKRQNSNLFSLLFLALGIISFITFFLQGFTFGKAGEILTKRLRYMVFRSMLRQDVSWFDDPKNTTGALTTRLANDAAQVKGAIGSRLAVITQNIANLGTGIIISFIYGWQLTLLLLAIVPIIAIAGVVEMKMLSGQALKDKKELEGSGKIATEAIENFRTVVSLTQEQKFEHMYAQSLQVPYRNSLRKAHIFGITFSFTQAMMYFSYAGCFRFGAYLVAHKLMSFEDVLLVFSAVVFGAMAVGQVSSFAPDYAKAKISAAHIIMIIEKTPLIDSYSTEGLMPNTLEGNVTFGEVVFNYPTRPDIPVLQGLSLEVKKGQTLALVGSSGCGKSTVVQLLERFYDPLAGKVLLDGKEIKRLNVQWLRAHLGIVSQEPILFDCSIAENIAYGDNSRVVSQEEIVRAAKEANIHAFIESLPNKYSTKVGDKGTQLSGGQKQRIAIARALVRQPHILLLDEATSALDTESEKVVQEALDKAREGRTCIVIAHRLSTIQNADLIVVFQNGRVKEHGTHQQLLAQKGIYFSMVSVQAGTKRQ
T1 sequence (P00522 whole entry, the tested form may be a part): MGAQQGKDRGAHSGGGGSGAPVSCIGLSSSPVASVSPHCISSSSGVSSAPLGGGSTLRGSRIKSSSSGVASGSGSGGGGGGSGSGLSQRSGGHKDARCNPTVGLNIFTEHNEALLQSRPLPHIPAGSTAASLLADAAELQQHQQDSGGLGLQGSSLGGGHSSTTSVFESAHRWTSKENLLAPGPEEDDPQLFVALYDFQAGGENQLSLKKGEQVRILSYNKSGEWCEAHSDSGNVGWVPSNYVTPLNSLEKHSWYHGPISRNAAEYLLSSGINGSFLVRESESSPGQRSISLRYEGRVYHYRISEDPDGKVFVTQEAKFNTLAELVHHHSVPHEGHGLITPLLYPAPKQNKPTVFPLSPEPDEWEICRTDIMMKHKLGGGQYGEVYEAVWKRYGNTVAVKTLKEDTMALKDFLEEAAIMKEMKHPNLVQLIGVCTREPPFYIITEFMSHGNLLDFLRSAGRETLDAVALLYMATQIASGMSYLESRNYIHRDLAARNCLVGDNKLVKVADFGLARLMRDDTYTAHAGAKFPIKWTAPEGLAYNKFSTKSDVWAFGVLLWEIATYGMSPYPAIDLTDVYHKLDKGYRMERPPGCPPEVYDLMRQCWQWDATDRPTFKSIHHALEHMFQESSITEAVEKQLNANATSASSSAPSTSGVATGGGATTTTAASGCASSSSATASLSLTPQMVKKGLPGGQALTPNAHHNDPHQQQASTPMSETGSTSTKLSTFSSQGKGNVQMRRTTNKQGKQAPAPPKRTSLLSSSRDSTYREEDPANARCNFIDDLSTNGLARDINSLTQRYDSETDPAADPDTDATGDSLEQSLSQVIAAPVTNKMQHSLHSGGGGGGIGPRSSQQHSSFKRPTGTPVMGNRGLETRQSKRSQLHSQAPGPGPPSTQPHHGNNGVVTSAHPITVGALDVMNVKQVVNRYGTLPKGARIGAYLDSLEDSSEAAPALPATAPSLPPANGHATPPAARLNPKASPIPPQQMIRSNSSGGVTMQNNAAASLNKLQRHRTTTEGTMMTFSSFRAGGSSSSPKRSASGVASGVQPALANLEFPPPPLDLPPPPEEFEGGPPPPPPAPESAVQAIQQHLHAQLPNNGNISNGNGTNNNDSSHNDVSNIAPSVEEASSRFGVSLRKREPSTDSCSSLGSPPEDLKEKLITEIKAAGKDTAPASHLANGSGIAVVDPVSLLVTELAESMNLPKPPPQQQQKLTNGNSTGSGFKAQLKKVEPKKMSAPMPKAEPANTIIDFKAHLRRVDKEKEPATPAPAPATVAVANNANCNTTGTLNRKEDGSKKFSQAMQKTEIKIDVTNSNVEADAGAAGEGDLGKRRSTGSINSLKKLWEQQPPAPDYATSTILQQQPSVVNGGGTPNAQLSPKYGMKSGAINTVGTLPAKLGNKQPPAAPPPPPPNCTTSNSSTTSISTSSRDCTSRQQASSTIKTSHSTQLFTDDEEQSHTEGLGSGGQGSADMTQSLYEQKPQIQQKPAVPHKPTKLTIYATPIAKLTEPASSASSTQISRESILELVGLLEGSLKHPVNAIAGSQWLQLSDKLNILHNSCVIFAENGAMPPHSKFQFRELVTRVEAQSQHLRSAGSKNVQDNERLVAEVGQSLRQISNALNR

As to `Cc1nc(Nc2ncc(C(=O)Nc3c(C)cccc3Cl)s2)cc(N2CCN(CCO)CC2)n1` [Dasatinib], on P-glycoprotein, the “substrate for the efflux transporter P-glycoprotein pump” value is on record as “not a substrate”. In addition, the tolerance in children result in data set [1] was “good tolerance”.
Regarding `Cc1cn(-c2cc(NC(=O)c3ccc(C)c(Nc4nccc(-c5cccnc5)n4)c3)cc(C(F)(F)F)c2)cn1` [nilotinib, 4-methyl-N-[3-(4-methyl-1-H-imidazol-1-yl)-5-(trifluoromethyl)phenyl]-3-[(4-pyridin-3-ylpyrimidin-2-yl)amino]benzamide], the “Abl activity (phospho-Y412-Abl)” value at Drosophila Abl was “completely suppressed”. The “Dscam-induced axon terminal overgrowth” value in data set [2] is given as “nearly completely suppressed; also recorded: suppresses axon terminal overgrowth”. Besides, in data set [3], the “axon terminal length in dFMRP mutants” value is 103 % of control. For the same compound, the “concentration in a human” value in “Human pharmacokinetics” is recorded as “approximately 1.3 μmol/liter”. The “substrate for the efflux transporter P-glycoprotein pump” value at P-glycoprotein is given as “not a substrate”. In addition, the bioavailability result in data set [4] was “approximately 30%”. For the same compound, the “influx dependent on OCT1” value at OCT1 is reported as “is not”.
`Cc1ccc(NC(=O)c2ccc(CN3CCN(C)CC3)cc2)cc1Nc1nccc(-c2cccnc2)n1` [imatinib]: at P-glycoprotein, the “substrate for the efflux transporter P-glycoprotein pump” value was “substrate”.

Source of the values: US10188650B2, “Treatment of neurological disorders” (THE REGENTS OF THE UNIVERSITY OF MICHIGAN, priority 2014, dated 2019).
